Data on two molecules can be found in patent US20210069194A1, “COMBINATION THERAPY FOR THE TREATMENT OF CANCER” (MingSight Pharmaceuticals, Inc., priority 2018, published 2021).

Data set [1] relates to IL-6 production in HBL1 cells. Put plainly: IL-6 assay (ELISA) in HBL1 cells. The format is cell-based, Human. The note with it: HBL1 cells (activating CD79 mutation), 48 hours, data not shown. For orientation: An ELISA detects its analyte on a solid surface through an enzyme-linked reagent.
Another data set deals with Human PKC delta (Homo sapiens, UniProt Q05655). Description: PKC isoform inhibition in vitro assay, PKC delta. The class given is biochemical.
The test system of data set [2] is IL-6 production in OCI-Ly3 cells. Put plainly: IL-6 assay (ELISA) in OCI-Ly3 cells. The format is cell-based, Human. The note with it: OCI-Ly3 cells (no activating CD79 mutation), 48 hours. On the procedure: (§1) TMD8 cells were grown in MEM media supplemented with 10% fetal calf serum (FCS), non-essential vitamin mix, and penicillin-streptomycin antibiotics (pen-strep). HBL1 cells were grown in RPMI-1640 media supplemented with 10% FCS and pen-strep. OCI-Ly3 cells were grown in DMEM media with 15% FCS, non-essential vitamin mix, pen-strep, and 25 mM HEPES buffer. Cells were maintained in suspension culture, fed twice weekly, and split 1:3 approximately every two weeks (TMD8, OCI-Ly3) or weekly (HBL1).
(§2) Cells were harvested via centrifugation and resuspended twice to rinse the media of any IL-6. Cells were then plated in 96 well plates at 5×10^5 cells per well and exposed to increasing concentrations of Compound A, sotrastaurin, or media containing 0.1% DMSO (negative control). For each cell type, experiments were performed in the media used for growth and maintenance. Cells were allowed to grow for 48 hours after plating in the presence of inhibitors. Following compound exposure, cells were pelleted in the 96 well plate, supernatant was removed, and the concentration of IL-6 in the supernatant was determined using R&D Systems Haman IL-6 Quantikine® ELISA Kit (D6050) according to manufacturer's instructions.

In data set [3] the test system is IL-6 production in TMD8 cells. Description: IL-6 assay (ELISA) in TMD8 cells. The note with it: for Inhibition of IL-6 production: TMD8 cells (activating CD79 mutation), 48 hours. The format is cell-based, Human. On the procedure:
as §1, §2

Data set [4] is described as follows: TMD8 mouse xenograph model of DLBCL, body weight. The format is in vivo, SCID mice. The note with it: 120 mg/kg BID. On the procedure: (§3) To test the efficacy of Compound A in vivo, TMD8 cells were grown and subcutaneously injected into SCID mice. Large scale suspension culture of TMD8 cells was performed in T250 flasks, where cells were expanded weekly. Animals (n=24) were inoculated with 10×10^6 cells (10×10^6 cells in 100 μL volume of 50% Matrigel®) subcutaneously in the animal's right flank.

For another data set, the system named is OCI-Ly3 cells. Put plainly: Cell proliferation and survival assay (MTT), OCI-Ly3. The format is cell-based, Human. The note with it: 96 hours. On the procedure:
(§4) TMD8 cells were grown in MEM media supplemented with 10% fetal calf serum (FCS), non-essential vitamin mix, and penicillin-streptomycin antibiotics (pen-strep). HBL1 cells were grown in RPMI-1640 media supplemented with 10% FCS and pen-strep. OCI-Ly3 cells were grown in DMEM media with 15% FCS, non-essential vitamin mix, pen-strep, and 25 mM HEPES buffer. Cells were maintained in suspension culture, fed twice weekly, and split 1:3 approximately every two weeks (TMD8, OCI-Ly3) or weekly (HBL1). Cells were cultured and maintained as described above, with cells always fed on the day prior to assay. Proliferation and survival of cells was quantified using an MTT assay kit according to manufacturer's instructions (Cell Proliferation Kit 1, Roche Diagnostics, Cat. No. 11 465 007 001). Experiments were performed in the same media used by each cell type for growth and maintenance. Cells (5×10^4) were plated in 96 well plates and allowed to grow for 96 hours in the presence of inhibitors. After the exposure period was completed, MTT reagent was added for 3-4 hours. The MTT solubilization reagent was then added to stop the reaction and cells were incubated overnight at 37° C. The plate read the next day according to the kit instructions.

Another data set concerns circulating lymphocytes. Description: Peripheral lymphocyte levels in healthy humans, multiple ascending dose study. The note with it: healthy humans, 50, 100, 150, 200 mg BID, 14 days. The class given is in vivo, human.
Another data set relates to HBL1 cells. Description: Cell proliferation and survival assay (MTT), HBL1. The class given is cell-based, Human. The note with it: 96 hours, data not shown.
For data set [5], the system named is TMD8 cells. Put plainly: Cell proliferation and survival assay (MTT), TMD8. The format is cell-based, Human. The note with it: for Inhibition of cell proliferation and survival: TMD8 cells, MTT, 96 hours. Here is the method: as §4
In data set [6] the test system is TMD8 cells. Put plainly: TMD8 mouse xenograph model of DLBCL, tumor volume. The format is in vivo, SCID mice. The note with it: 120 mg/kg BID. Here is the method: as §3

SMILES strings stand for the structures.

Human PKC delta, sequence (Q05655 whole entry, canonical isoform): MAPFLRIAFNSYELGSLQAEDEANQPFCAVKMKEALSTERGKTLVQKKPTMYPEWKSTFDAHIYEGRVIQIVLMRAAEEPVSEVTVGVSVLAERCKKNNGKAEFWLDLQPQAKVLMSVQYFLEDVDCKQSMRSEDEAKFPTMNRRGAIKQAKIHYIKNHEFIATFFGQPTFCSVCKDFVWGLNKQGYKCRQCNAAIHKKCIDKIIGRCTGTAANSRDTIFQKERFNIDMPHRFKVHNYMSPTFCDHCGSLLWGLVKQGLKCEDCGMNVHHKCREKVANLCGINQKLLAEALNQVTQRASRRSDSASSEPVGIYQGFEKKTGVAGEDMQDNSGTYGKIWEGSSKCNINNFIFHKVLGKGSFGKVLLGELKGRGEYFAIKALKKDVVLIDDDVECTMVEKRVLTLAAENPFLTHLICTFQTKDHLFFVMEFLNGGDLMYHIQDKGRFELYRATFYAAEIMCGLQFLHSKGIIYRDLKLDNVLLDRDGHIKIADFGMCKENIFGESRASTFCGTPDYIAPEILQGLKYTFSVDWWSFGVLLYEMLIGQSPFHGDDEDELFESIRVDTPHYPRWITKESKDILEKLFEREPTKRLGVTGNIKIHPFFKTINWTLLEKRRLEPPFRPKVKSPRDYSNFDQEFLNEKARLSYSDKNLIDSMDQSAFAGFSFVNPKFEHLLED
Protocol for circulating lymphocytes: Normal, healthy human patients received various doses of Compound A for 14 days of dosing. The dose levels were as follows: cohort 1: 50 mg, BID; cohort 2: 100 mg, BID; cohort 3, 150 mg, BID; and cohort 4,200 mg BID.

For `Cc1ncc(F)c(Nc2n[nH]c3c2CN(C(=O)N2C[C@@H](C)N(CC4CCOCC4)C[C@@H]2C)C3(C)C)n1` [Compound A, 5-{[(2S,5R)-2,5-Dimethyl-4-(tetrahydro-2H-pyran-4-ylmethyl)piperazin-1-yl]carbonyl}-N-(5-fluoro-2-methylpyrimidin-4-yl)-6,6-dimethyl-1,4,5,6-tetrahydropyrrolo[3,4-c]pyrazol-3-amine], the results for the “Inhibition of IL-6 production” value in data set [1], in data set [2] and in data set [3] were “dose-dependent inhibition”, “not affected” and “dose-dependent inhibition”, respectively. Besides, the “Inhibition of PKC delta (in words)” value at Human PKC delta is “does not inhibit PKC delta to any appreciable degree”. Moreover, in [3], the “Potency compared to sotrastaurin, IL-6 assay” value is “slightly more potent”. Moreover, in data set [4], the “Mean weight of vehicle treated group greater than Compound A treated animals by” value was found to be 1.8 g. In addition, the Body weight change result in data set [4] (day 24-28) is reported as “no increase in body weight”. Further, the “Inhibition of cell proliferation and survival” value is “not affected by either compound except at the highest doses tested” in the data set with OCI-Ly3 cells, “dose-dependent inhibition” in the data set with HBL1 cells and “dose-dependent inhibition” in the data set on TMD8 cells [5]. Further, the “Number of circulating lymphocytes” value with circulating lymphocytes is “dose dependent increase”. The “Potency compared to sotrastaurin, cell proliferation assay” value in the data set on TMD8 cells [5] is recorded as “modestly more potent”. Besides, the Mean tumor volume in the data set on TMD8 cells [6] (study day 20) turned out to be 898 mm^3; with TMD8 cells [6] (study day 28), 970 mm^3. For the same molecule, the “Increase of mean tumor volume” value in the data set with TMD8 cells [6] (study days 20 to 28) is given as 8%. Further, the “Tumor growth (in words)” value with TMD8 cells [6] (study days 20 to 28) is listed as “no appreciable amounts of tumor growth”.
Consider `CN1CCN(c2nc(C3=C(c4c[nH]c5ccccc45)C(=O)NC3=O)c3ccccc3n2)CC1` [sotrastaurin, reference compound], for which the “Inhibition of IL-6 production” value in data set [2] is “not affected”; in data set [3], “dose dependent inhibition”. Also, the “Inhibition of cell proliferation and survival” value in the data set with OCI-Ly3 cells was “not affected by either compound except at the highest doses tested”; in the data set on TMD8 cells [5] it was “dose dependent inhibition”.
